For this assay, the system named is clinical isolate of E. coli isolated from sputum. The assay is described as follows: Antibiotic sensitivity by disc-agar diffusion technique. It is filed as cell-based. Here is the method:
A clinical isolate of E. coli isolated from sputum was utilized. […] The organism was animal passed in mice and subsequently recovered and plated onto MacConkey's agar. The reisolated organisms were grown overnight in brain-heart infusion broth, and then stored frozen at -70° C. The inoculate the fibrin clot, organisms from thawed stocks were inoculated into brainheart infusion broth and incubated overnight on a rotary shaker (120 rpm) an 37° C. The E. coli was harvested by centrifugation, washed 3X and finally resuspended in normal saline. The number or organisms was quantified by turbidimentry, and the concentration adjusted with normal saline. All inoculum sizes were based on viable counts determined by scoring colony forming units on MacConkeys agar.

Turning to `CC1(C)S[C@@H]2[C@H](NC(=O)[C@H](N)c3ccccc3)C(=O)N2[C@H]1C(=O)O` [ampicillin], the “antibiotic sensitivity of the E. coli isolate” value (from here on “antibiotic sensitivity”) is “sensitive”. For `CC(=O)OCC1=C(C(=O)O)N2C(=O)[C@@H](NC(=O)Cc3cccs3)[C@H]2SC1` [cephalothin] the value was “sensitive”; for `O=C(N[C@H](CO)[C@H](O)c1ccc([N+](=O)[O-])cc1)C(Cl)Cl` [chloramphenicol], “sensitive”; for `CC[C@H]1OC(=O)[C@H](C)[C@@H](O[C@H]2C[C@@](C)(OC)[C@@H](O)[C@H](C)O2)[C@H](C)[C@@H](O[C@@H]2O[C@H](C)C[C@H](N(C)C)[C@H]2O)[C@](C)(O)C[C@@H](C)C(=O)[C@H](C)[C@@H](O)[C@]1(C)O` [erythromycin], “resistant”.

`NC[C@H]1O[C@H](O[C@H]2[C@H](O)[C@@H](O[C@H]3O[C@H](CO)[C@@H](O)[C@H](N)[C@H]3O)[C@H](N)C[C@@H]2N)[C@H](O)[C@@H](O)[C@@H]1O` [kanamycin]: the “antibiotic sensitivity” value was “sensitive”. In the case of `CC1(C)S[C@@H]2[C@H](NC(=O)Cc3ccccc3)C(=O)N2[C@H]1C(=O)O` [penicillin G], the “antibiotic sensitivity” value is reported as “resistant”. For `CN(C)[C@@H]1C(O)=C(C(N)=O)C(=O)[C@@]2(O)C(O)=C3C(=O)c4c(O)cccc4[C@@](C)(O)[C@H]3C[C@@H]12` [tetracycline], the “antibiotic sensitivity” value is listed as “sensitive”. For `CN[C@H](CC(C)C)C(=O)N[C@H]1C(=O)N[C@@H](CC(N)=O)C(=O)N[C@H]2C(=O)N[C@H]3C(=O)N[C@H](C(=O)N[C@H](C(=O)O)c4cc(O)cc(O)c4-c4cc3ccc4O)[C@H](O)c3ccc(c(Cl)c3)Oc3cc2cc(c3O[C@@H]2O[C@H](CO)[C@@H](O)[C@H](O)[C@H]2O[C@H]2C[C@](C)(N)[C@H](O)[C@H](C)O2)Oc2ccc(cc2Cl)[C@H]1O` [vancomycin], the “antibiotic sensitivity” value is “resistant”. Under gentamicin stands “sensitive”; under trimethoprin/sulfamethoxazole, “sensitive”.
